# Reference: patent US20240158391A1, “DERIVATIVES OF 4-(IMIDAZO[1,2-A]PYRIDIN-3-YL)-N-(PYRIDIN-3-YL) PYRIMIDIN-2- AMINE FOR TREATING PROLIFERATIVE DISEASES AND CONDITIONS” (AUCENTRA THERAPEUTICS PTY LTD, priority 2019, published 2024)
# Key:
# [1] = biological target: T1, FLT3-ITD (Homo sapiens, UniProt P36888); assay: ADP Glo kinase assay, FLT3-ITD; type: biochemical; conditions: for Ki: Km ATP 100 μM, read-out: Enzymatic inhibition, Ki, FLT3-ITD
# T1 sequence (P36888 1-993): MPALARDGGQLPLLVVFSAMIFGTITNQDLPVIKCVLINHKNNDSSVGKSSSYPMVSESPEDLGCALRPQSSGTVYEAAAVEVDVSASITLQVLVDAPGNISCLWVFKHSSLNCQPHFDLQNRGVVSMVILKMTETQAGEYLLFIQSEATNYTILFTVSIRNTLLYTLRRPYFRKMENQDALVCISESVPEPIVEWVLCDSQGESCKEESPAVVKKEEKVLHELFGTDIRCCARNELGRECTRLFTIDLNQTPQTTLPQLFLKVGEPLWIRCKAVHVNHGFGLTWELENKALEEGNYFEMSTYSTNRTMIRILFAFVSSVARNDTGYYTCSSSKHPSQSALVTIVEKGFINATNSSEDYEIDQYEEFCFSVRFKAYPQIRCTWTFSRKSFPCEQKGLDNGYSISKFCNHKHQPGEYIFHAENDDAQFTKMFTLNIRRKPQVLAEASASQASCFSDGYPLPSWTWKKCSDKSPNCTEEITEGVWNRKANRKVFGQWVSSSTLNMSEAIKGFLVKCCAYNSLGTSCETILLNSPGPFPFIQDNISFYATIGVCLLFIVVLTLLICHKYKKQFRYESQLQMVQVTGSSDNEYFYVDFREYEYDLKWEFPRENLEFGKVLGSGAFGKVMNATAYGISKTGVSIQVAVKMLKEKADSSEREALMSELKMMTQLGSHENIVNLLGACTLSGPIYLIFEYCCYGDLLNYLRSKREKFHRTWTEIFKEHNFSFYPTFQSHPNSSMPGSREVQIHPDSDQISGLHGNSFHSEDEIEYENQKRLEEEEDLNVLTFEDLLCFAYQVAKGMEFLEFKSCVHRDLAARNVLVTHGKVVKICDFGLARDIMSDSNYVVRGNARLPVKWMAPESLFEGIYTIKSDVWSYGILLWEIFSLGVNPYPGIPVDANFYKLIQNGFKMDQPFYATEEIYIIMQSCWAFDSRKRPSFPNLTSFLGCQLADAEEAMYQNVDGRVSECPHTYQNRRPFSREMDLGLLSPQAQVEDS
# Method in brief: (§1)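 10-pt 1:3 dilution series, 10-0.0005 μM, 0.5% DMSO; RT reaction, optimised time; stopped with ADP Glo reagent.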
# [2] = biological target: CDK1/CyclinB (Homo sapiens, UniProt P06493); assay: ADP Glo kinase assay, CDK1/CyclinB; type: biochemical; conditions: for Ki: Km ATP, read-out: Enzymatic inhibition, Ki, CDK1 B; for remaining activity at 1 µM: compound at 1 μM, read-out: Residual enzymatic activity (%) at 1 μM, CDK1 B
# CDK1/CyclinB, sequence (P06493 whole entry, species assumed): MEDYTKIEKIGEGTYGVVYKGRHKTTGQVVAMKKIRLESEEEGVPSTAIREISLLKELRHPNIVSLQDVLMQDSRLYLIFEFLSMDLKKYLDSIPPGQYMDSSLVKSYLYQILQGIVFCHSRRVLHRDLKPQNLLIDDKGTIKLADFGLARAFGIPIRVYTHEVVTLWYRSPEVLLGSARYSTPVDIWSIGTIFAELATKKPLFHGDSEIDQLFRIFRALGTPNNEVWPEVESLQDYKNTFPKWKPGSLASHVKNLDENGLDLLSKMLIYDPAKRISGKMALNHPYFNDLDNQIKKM
# CDK1/CyclinB, sequence (P14635 whole entry partner, species assumed): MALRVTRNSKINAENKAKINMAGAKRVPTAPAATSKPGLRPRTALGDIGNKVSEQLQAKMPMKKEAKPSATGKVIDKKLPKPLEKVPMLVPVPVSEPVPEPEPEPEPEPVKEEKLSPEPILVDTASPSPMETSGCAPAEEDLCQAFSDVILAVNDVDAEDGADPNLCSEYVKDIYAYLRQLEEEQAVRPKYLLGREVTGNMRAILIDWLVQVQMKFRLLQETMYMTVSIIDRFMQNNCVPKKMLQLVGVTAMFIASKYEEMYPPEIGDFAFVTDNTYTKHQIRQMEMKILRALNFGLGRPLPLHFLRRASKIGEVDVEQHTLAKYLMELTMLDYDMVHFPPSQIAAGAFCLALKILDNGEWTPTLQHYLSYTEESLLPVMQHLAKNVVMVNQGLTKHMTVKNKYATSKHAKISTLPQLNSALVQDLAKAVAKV
# Method in brief: as §1
# [3] = biological target: CDK7/CyclinH/Mat1 (Homo sapiens, UniProt P50613); assay: ADP Glo kinase assay, CDK7/CyclinH/Mat1; type: biochemical; conditions: for Ki: Km ATP, read-out: Enzymatic inhibition, Ki, CDK7 H; for remaining activity at 1 µM: compound at 1 μM, read-out: Residual enzymatic activity (%) at 1 μM, CDK7 H
# CDK7/CyclinH/Mat1, sequence (P50613 whole entry, species assumed): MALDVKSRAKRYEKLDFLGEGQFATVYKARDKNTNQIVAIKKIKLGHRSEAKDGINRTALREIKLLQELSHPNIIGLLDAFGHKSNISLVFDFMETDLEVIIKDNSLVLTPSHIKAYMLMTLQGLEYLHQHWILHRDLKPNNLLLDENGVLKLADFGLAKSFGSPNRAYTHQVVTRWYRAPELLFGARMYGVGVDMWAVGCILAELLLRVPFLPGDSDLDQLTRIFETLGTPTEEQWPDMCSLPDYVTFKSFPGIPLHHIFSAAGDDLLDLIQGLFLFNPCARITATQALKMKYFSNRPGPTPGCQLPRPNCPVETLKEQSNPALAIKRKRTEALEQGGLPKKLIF
# CDK7/CyclinH/Mat1, sequence (P51946 whole entry partner, species assumed): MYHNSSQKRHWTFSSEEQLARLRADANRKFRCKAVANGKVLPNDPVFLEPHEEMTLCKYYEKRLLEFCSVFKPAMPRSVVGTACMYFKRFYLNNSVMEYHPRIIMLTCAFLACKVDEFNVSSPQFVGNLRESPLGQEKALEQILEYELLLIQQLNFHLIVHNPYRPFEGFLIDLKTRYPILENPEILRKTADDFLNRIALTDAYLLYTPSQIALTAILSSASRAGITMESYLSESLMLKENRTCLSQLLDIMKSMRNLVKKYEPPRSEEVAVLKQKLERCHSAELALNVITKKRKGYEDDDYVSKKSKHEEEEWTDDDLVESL
# CDK7/CyclinH/Mat1, sequence (P51948 whole entry partner, species assumed): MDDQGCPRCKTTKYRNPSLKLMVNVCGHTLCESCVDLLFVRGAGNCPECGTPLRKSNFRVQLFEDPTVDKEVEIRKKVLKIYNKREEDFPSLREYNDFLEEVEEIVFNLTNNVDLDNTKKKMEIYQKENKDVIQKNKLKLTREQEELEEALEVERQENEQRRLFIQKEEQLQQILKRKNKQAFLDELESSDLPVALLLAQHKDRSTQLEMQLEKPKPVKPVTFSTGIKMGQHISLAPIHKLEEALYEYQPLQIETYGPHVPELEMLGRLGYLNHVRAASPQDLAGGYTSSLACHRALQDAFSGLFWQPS
# Method in brief: as §1
# [4] = biological target: CDK2/CyclinA2 (Homo sapiens, UniProt P24941); assay: ADP Glo kinase assay, CDK2/CyclinA2; type: biochemical; conditions: for remaining activity at 1 µM: compound at 1 μM, read-out: Residual enzymatic activity (%) at 1 μM, CDK2 A; for Ki: Km ATP, read-out: Enzymatic inhibition, Ki, CDK2 A
# Method in brief: as §1
# [5] = biological target: CDK9/CyclinT1 (Homo sapiens, UniProt P50750); assay: ADP Glo kinase assay, CDK9/CyclinT1; type: biochemical; conditions: CDK9/CyclinT1; Km ATP; read-out: Enzymatic inhibition, Ki, CDK9 T1
# CDK9/CyclinT1, sequence (P50750 whole entry, species assumed): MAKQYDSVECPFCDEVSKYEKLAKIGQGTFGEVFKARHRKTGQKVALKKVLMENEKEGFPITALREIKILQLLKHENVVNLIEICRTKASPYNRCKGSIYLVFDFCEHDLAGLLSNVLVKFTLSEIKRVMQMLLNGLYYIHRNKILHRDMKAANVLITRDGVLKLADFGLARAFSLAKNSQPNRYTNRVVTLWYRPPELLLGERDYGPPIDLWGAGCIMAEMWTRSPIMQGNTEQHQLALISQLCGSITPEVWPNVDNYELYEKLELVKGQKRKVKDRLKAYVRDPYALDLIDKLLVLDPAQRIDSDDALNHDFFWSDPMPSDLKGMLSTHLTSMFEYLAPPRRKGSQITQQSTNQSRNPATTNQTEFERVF
# CDK9/CyclinT1, sequence (O60563 whole entry partner, species assumed): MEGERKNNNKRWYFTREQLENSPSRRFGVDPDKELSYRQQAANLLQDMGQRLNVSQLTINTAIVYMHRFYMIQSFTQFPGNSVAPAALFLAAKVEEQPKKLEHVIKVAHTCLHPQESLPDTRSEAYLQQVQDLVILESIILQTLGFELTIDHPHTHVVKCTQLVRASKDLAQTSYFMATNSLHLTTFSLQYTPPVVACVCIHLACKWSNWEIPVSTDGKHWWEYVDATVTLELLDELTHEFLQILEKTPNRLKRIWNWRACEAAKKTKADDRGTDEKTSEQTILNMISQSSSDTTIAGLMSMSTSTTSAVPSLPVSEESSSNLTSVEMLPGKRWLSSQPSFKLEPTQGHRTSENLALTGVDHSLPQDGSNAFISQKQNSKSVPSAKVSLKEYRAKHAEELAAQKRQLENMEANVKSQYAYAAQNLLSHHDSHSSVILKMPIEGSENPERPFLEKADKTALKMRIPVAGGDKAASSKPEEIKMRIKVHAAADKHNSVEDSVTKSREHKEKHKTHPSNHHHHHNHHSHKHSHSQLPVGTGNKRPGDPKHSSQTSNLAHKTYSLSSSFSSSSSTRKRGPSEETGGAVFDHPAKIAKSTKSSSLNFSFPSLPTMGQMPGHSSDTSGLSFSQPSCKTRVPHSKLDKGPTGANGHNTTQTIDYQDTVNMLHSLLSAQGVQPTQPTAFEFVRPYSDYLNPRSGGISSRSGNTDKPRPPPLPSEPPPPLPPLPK
# Method in brief: as §1
# [6] = system: MV-4-11; assay: Proliferation assay (resazurin, leukemia cell lines), MV-4-11; type: cell-based; conditions: Homo sapiens, MV4-11, read-out: 72 h Growth inhibition GI50, MV-4-11 cells
# Text: The following compounds were used as comparators.
# [7] = biological target: CDK6/CyclinD3 (Homo sapiens, UniProt Q00534); assay: ADP Glo kinase assay, CDK6/CyclinD3; type: biochemical; conditions: for Ki: Km ATP, read-out: Enzymatic inhibition, Ki, CDK6 D3; for remaining activity at 1 µM: compound at 1 μM, read-out: Residual enzymatic activity (%) at 1 μM, CDK6 D3
# CDK6/CyclinD3, sequence (Q00534 whole entry, species assumed): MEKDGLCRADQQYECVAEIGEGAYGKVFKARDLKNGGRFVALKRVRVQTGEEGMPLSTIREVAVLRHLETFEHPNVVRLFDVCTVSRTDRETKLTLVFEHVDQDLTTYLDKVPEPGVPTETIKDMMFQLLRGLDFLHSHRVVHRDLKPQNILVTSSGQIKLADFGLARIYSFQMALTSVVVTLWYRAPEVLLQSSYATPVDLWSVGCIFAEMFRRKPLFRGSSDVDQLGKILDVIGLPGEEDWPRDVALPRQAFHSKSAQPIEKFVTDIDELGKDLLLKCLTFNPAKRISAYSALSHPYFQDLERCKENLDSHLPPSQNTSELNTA
# CDK6/CyclinD3, sequence (P30281 whole entry partner, species assumed): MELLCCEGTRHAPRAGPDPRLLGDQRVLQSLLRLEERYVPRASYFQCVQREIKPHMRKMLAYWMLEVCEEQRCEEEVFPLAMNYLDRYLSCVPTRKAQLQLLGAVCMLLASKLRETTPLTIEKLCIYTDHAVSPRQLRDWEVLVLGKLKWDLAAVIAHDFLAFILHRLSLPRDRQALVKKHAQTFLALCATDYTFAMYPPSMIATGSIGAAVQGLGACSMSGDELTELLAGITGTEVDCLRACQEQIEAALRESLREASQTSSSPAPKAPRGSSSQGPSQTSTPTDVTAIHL
# Method in brief: as §1
# [8] = biological target: CDK4/CyclinD1 (Homo sapiens, UniProt P11802); assay: ADP Glo kinase assay, CDK4/CyclinD1; type: biochemical; conditions: for remaining activity at 1 µM: compound at 1 μM, read-out: Residual enzymatic activity (%) at 1 μM, CDK4 D1; for Ki: Km ATP, read-out: Enzymatic inhibition, Ki, CDK4 D1
# CDK4/CyclinD1, sequence (P11802 whole entry, species assumed): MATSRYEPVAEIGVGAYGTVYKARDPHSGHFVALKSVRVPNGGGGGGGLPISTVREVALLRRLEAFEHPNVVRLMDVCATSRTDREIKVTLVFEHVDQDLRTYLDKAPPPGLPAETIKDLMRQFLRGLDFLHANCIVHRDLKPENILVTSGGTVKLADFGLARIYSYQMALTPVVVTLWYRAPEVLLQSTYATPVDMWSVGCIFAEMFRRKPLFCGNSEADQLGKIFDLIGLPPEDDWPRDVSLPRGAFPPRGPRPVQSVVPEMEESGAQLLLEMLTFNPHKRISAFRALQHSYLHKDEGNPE
# CDK4/CyclinD1, sequence (P24385 whole entry partner, species assumed): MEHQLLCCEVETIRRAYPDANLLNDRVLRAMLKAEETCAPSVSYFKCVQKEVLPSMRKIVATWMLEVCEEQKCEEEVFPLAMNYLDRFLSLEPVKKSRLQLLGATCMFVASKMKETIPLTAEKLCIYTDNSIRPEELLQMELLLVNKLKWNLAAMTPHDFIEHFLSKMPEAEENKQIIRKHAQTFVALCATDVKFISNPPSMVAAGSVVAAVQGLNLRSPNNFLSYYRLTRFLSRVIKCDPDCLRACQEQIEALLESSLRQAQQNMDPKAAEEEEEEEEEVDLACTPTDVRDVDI
# Protocol: Test compounds are used in 1:3 serial dilutions for 10 concentrations (from 10-0.0005 μM) in 0.5% DMSO. […] The kinase reactions are run for optimised time period at room temperature and then the reaction is stopped by adding 5 μL of ADP Glo reagent.
SMILES,Ki [1],Ki [2],Ki [3],remaining activity at 1 µM [4],Ki [5],GI50 [6],Ki [7],remaining activity at 1 µM [8],Ki [4],Ki [8],remaining activity at 1 µM [2],remaining activity at 1 µM [7],"Residual enzymatic activity (%) at 1 μM, FLT3-ITD ([1]; compound at 1 μM)",remaining activity at 1 µM [3]
"COC(=O)N1CCC(c2ccc(Nc3ncc(F)c(-c4cnc5ccc(-c6ccccc6)cn45)n3)cn2)CC1 [Compound 29, Methyl 4-(5-((5-fluoro-4-(6-phenylimidazo[1,2-a]pyridin-3-yl)pyrimidin-2-yl)amino)pyridin-2-yl)piperidine-1-carboxylate]",257 nM,,> 5000 nM,25%,> 5000 nM,337 nM,,98%,,,69%,61%,,
"Fc1cnc(Nc2ccc(N3CCN(CCN4CCOCC4)CC3)nc2)nc1-c1cnc2ccc(-c3ccccc3)cn12 [Compound 30, 5-Fluoro-N-(6-(4-(2-morpholinoethyl)piperazin-1-yl)pyridin-3-yl)-4-(6-phenylimidazo[1,2-a]pyridin-3-yl)pyrimidin-2-amine]",148 nM,,223 nM,,75 nM,56 nM,,65%,520 nM,,52%,23%,,
"CCOc1ccc(Nc2ncc(F)c(-c3cnc4ccc(-c5ccccc5)cn34)n2)cn1 [Compound 31, N-(6-Ethoxypyridin-3-yl)-5-fluoro-4-(6-phenylimidazo[1,2-a]pyridin-3-yl)pyrimidin-2-amine]",,,,55%,> 1000 nM,600 nM,,95%,,,97%,41%,70%,100%
"O=C(c1ccc(Nc2ncc(F)c(-c3cnc4ccc(-c5ccccc5)cn34)n2)cn1)N1CCCCC1 [Compound 32, (5-((5-Fluoro-4-(6-phenylimidazo[1,2-a]pyridin-3-yl)pyrimidin-2-yl)amino)pyridin-2-yl) (piperidin-1-yl)methanone]",> 1000 nM,,,89%,> 1000 nM,620 nM,,91%,,,96%,44%,,100%
"O=C(NC1CC1)c1ccc(Nc2ncc(F)c(-c3cnc4ccc(-c5ccccc5)cn34)n2)cn1 [Compound 33, N-Cyclopropyl-5-((5-fluoro-4-(6-phenylimidazo[1,2-a]pyridin-3-yl)pyrimidin-2-yl)amino) picolinamide]",> 1000 nM,,,83%,> 500 nM,296 nM,,96%,,,59%,46%,,100%
"Fc1cnc(Nc2ccc(Cl)nc2)nc1-c1cnc2ccc(-c3ccccc3)cn12 [Compound 34, N-(6-Chloropyridin-3-yl)-5-fluoro-4-(6-phenylimidazo[1,2-a]pyridin-3-yl)pyrimidin-2-amine]",> 1000 nM,,,86%,330 nM,920 nM,,92%,,,100%,47%,,92%

# Continued, values first:
Ki [1],Ki [2],Ki [3],remaining activity at 1 µM [4],Ki [5],GI50 [6],Ki [7],remaining activity at 1 µM [8],Ki [4],Ki [8],remaining activity at 1 µM [2],remaining activity at 1 µM [7],"Residual enzymatic activity (%) at 1 μM, FLT3-ITD ([1]; compound at 1 μM)",remaining activity at 1 µM [3],SMILES
6 nM,635 nM,3970 nM,28%,8 nM,11 nM,> 5000 nM,33%,,,,,,,"CS(=O)(=O)N1CCN(c2ccc(Nc3nccc(-c4cnc5ccc(-c6cccs6)cn45)n3)cn2)CC1 [Compound 21, N-(6-(4-(Methylsulfonyl)piperazin-1-yl)pyridin-3-yl)-4-(6-(thiophen-2-yl)imidazo[1,2-a]pyridin-3-yl)pyrimidin-2-amine]"
5 nM,199 nM,770 nM,,10 nM,6 nM,243 nM,,38 nM,94 nM,,,,,"CN1CCN(c2ccc(Nc3nccc(-c4cnc5ccc(Cl)cn45)n3)cn2)CC1 [Compound 22, 4-(6-Chloroimidazo[1,2-a]pyridin-3-yl)-N-(6-(4-methylpiperazin-1-yl)pyridin-3-yl) pyrimidin-2-amine]"
5 nM,,297 nM,,96 nM,740 nM,,94%,1080 nM,,100%,44%,,,"c1ccc(-c2ccc3ncc(-c4ccnc(Nc5ccc(N6CCC6)nc5)n4)n3c2)cc1 [Compound 25, N-(6-(Azetidin-1-yl)pyridin-3-yl)-4-(6-phenylimidazo[1,2-a]pyridin-3-yl)pyrimidin-2-amine]"
91 nM,,> 5000 nM,27%,261 nM,37 nM,,92%,,,60%,53%,,,"Brc1ccc2ncc(-c3ccnc(Nc4ccc(N5CCCC5)nc4)n3)n2c1 [Compound 26, 4-(6-Bromoimidazo[1,2-a]pyridin-3-yl)-N-(6-(pyrrolidin-1-yl)pyridin-3-yl)pyrimidin-2-amine]"
109 nM,,> 5000 nM,37%,> 5000 nM,196 nM,,97%,,,84%,61%,,,"c1ccc(-c2ccc3ncc(-c4ccnc(Nc5ccc(N6CCCC6)nc5)n4)n3c2)cc1 [Compound 27, 4-(6-Phenylimidazo[1,2-a]pyridin-3-yl)-N-(6-(pyrrolidin-1-yl)pyridin-3-yl)pyrimidin-2-amine]"
65 nM,,314 nM,,86 nM,233 nM,,76%,1120 nM,,61%,45%,,,"CN1CCN(c2ccc(Nc3ncc(F)c(-c4cnc5ccc(-c6ccccc6)cn45)n3)cn2)CC1 [Compound 28, 5-Fluoro-N-(6-(4-methylpiperazin-1-yl)pyridin-3-yl)-4-(6-phenylimidazo[1,2-a]pyridin-3-yl)pyrimidin-2-amine]"
10 nM,198 nM,,,34 nM,18 nM,,,131 nM,530 nM,,34%,,31%,"CN1CCN(c2ccc(Nc3nccc(-c4cnc5ccc(C(F)(F)F)cn45)n3)cn2)CC1 [Compound 36, N-(6-(4-Methylpiperazin-1-yl)pyridin-3-yl)-4-(6-(trifluoromethyl)imidazo[1,2-a]pyridin-3-yl)pyrimidin-2-amine]"
26 nM,151 nM,174 nM,,14 nM,24 nM,215 nM,,72 nM,154 nM,,,,,"CC(C)N1CCN(c2ccc(Nc3nccc(-c4cnc5ccc(Cl)cn45)n3)cn2)CC1 [Compound 37, 4-(6-Chloroimidazo[1,2-a]pyridin-3-yl)-N-(6-(4-isopropylpiperazin-1-yl)pyridin-3-yl)pyrimidin-2-amine]"
